Earlier results in article PMC8583936, “Machine Learning Assisted Approach for Finding Novel High Activity Agonists of Human Ectopic Olfactory Receptors” (International Journal of Molecular Sciences, 2021).
Read-outs that look alike come from different tables or passages of the source.

How the values were obtained:
OR1A1 = target: T1, OR1A1 (Homo sapiens, UniProt Q9P1Q5); settings: cited from earlier work
T1 sequence (Q9P1Q5 1-309): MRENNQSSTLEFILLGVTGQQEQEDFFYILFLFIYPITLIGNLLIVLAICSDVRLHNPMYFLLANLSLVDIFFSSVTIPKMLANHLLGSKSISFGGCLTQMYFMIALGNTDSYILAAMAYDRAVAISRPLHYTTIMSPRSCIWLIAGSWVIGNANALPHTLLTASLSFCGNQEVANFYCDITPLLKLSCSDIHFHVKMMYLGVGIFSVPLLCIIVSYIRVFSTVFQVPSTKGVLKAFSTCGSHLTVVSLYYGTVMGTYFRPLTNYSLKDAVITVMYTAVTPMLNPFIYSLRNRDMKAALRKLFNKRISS

OR2W1 = target: T2, OR2W1 (Homo sapiens, UniProt Q9Y3N9); settings: cited from earlier work
T2 sequence (Q9Y3N9 1-320): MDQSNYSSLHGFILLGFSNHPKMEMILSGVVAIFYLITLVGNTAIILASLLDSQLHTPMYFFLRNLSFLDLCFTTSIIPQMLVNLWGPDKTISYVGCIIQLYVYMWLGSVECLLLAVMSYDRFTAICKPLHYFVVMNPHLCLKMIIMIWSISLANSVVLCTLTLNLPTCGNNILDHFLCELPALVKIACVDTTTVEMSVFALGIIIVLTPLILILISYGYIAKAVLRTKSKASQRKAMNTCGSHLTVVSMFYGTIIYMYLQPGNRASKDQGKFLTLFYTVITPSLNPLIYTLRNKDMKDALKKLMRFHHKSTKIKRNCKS

[1] = Table S1, ref Supplement references [1]-[9] as printed after each odorant name
[2] = Table S2, ref Supplement references [2]-[12] as printed after each odorant name

Compound	Class (agonist / non-agonist / conflicting info.) for OR1A1 (OR1A1)	Class (agonist / non-agonist / antagonist / conflicting info.) for OR2W1 (OR2W1)	Class (agonist / non-agonist / conflicting info.) for OR1A1 (OR1A1; [1])	Class (agonist / non-agonist / antagonist / conflicting info.) for OR2W1 (OR2W1; [2])	Class (agonist / non-agonist / conflicting info.) for OR1A1 (OR1A1; Table S1, ref Supplement references [1]-[9] as printed after each odorant name, listed as (R)-limonene)
CCCOC(=O)CCC [Propyl butyrate]	Non-agonist	Non-agonist	–	–	–
CCCSSCCC [Propyl disulfide]	–	–	Non-agonist	Non-agonist	–
c1ccc2ncccc2c1 [Quinoline]	–	–	Agonist	Non-agonist	–
C=C(C)[C@H]1CC=C(C)CC1 [R-limonene]	–	–	Agonist	Agonist	agonists
CC(C)=CC1CC(C)CCO1 (stereo not drawn) [Rose oxide]	–	–	Non-agonist	Non-agonist	–
CC1=CCC(C(C)(C)O)CC1 (stereo not drawn) [Terpineol]	–	–	Conflicting info.	Conflicting info.	–
CC(=O)OC(C)(C)C1CC=C(C)CC1 (stereo not drawn) [Terpinyl acetate]	–	–	Conflicting info.	Conflicting info.	–
CCC(=O)OC(C)(C)C [Tert-Butyl propionate]	–	–	Non-agonist	Non-agonist	–
SCc1cccs1 [Thenyl mercaptan]	–	–	Non-agonist	Non-agonist	–
O=C(O)CS [Thioglycolic acid]	–	–	Non-agonist	Non-agonist	–
C/C=C/c1ccc(OC)cc1 [Trans-anethole]	–	–	Agonist	Agonist	–
Cc1cnc(C)c(C)n1 [Trimethyl pyrazine]	–	–	Non-agonist	Non-agonist	–
CCCCC(=O)O [Valeric acid]	–	–	Non-agonist	Non-agonist	–
COc1cc(C(=O)O)ccc1O [Vanillic acid]	–	–	Non-agonist	Non-agonist	–
COc1cc(C=O)ccc1O [Vanillin]	–	–	Non-agonist	Conflicting info.	–
CCCCC/C=C\CCC=O [Z-4-decenal]	–	–	Conflicting info.	Non-agonist	–
CC(=O)/C=C/C1=C(C)CCCC1(C)C [Β-ionone]	–	–	Non-agonist	Non-agonist	–
CCC1CCC(=O)O1 (stereo not drawn) [Γ-caprolactone]	Non-agonist	Non-agonist	–	–	–
(+)-Fenchone	–	–	Non-agonist	Non-agonist	–
(+)-alpha-Pinene	–	–	Non-agonist	Non-agonist	–
(+)-beta-Pinene	–	–	Non-agonist	Non-agonist	–
(-)-Fenchone	–	–	Non-agonist	Non-agonist	–
(-)-alpha-Terpineol	–	–	Non-agonist	Non-agonist	–
(S)-(-)-citronellol	Agonist	Agonist	–	–	–
(S)-(-)-limonene	–	–	agonists	Agonist	–
